Patent publication US20230233543A1, “COMPOUNDS FOR THE TREATMENT OF COVID-19” (Dompe' Farmaceutici SPA, priority 2020, published 2023)
Counter-ions that a name gives are not always drawn. Like-named read-outs stand apart in the source and are kept apart here.

Tests used:
[1] = system: SARS-CoV-2 (BetaCov/Belgium/GHB-03021/2020) in VeroE6-EGFP cells; assay: microbe, parasite or virus in culture; format: cell-based; conditions: for IC50: Severe acute respiratory syndrome coronavirus 2
SARS-CoV-2 PLpro = SARS-CoV-2 PLpro (Severe acute respiratory syndrome coronavirus 2, UniProt P0DTD1); assay: PLpro enzymatic assay (ISG15-AMC substrate); format: biochemical; conditions: read-out: PL_Pro Inhibition [%]
SARS-CoV-2 3CL-Pro = SARS-CoV-2 3CL-Pro (Severe acute respiratory syndrome coronavirus 2, UniProt P0DTD1); assay: biochemical; conditions: read-out: 3CL-Pro Inhibition [%]

## c1ccc2c(c1)Sc1ccccc1N2C[C@H]1CN2CCC1CC2 (stereo in doubt) [Mequitazine, 10-(Quinuclidin-3-ylmethyl)-10H-phenothiazine]
[1]
  % Confluence: 61.74%
  % Inhibition: 62.09%
[1]; read-out: IC50
  IC50: 5.99 µM

## Cc1cc(O)c2c(=O)c3c(O)cc(O)c4c5c(O)cc(O)c6c(=O)c7c(O)cc(C)c8c1c2c(c34)c(c78)c65 [Hypericin, 1,3,4,6,8,13-Hexahydroxy-10,11-dimethylphenanthro[1,10,9,8-opqra]perylene-7,14-dione]
SARS-CoV-2 PLpro
  inhibition at 20 µM: 40.1%
SARS-CoV-2 3CL-Pro
  inhibition at 20 µM: 45.7%
[1]
  % Confluence: 20.85%
  IC50: 0.25 µM

## CC(C)c1ccc2c(c1)C(N1CCN(CCO)CC1)Cc1ccc(F)cc1S2 (centres unmarked) [Isofloxythepin, 2-[4-(9-fluoro-3-propan-2-yl-5,6-dihydrobenzo[b][1]benzothiepin-5-yl)piperazin-1-yl]ethanol]
[1]
  % Confluence: 67.67%
  % Inhibition: 35.39%
[1]; read-out: IC50
  IC50: 106 µM

## CC(C)(C)NCc1ccc(Nc2ccnc3cc(Cl)ccc23)cc1O [N-tert-Butylisoquine, 2-[(tert-butylamino)methyl]-5-[(7-chloroquinolin-4-yl)amino]phenol]
[1]
  % Confluence: 77.86%
  % Inhibition: 44.99%

## Nc1ccc2cc3ccc(N)cc3nc2c1 [Proflavine, 3,6-diaminoacridine]
SARS-CoV-2 3CL-Pro; primary screen at 20 µM, without DTT, read at 15 min, normalized to zinc pyrithione (100%) and DMSO (0%)
  inhibition at 20 µM: 89.9%
[1]
  % Confluence: 8.56%
  % Inhibition: 208.4%

## O=C(c1ccc(OCCN2CCCCC2)cc1)c1c(-c2ccc(O)cc2)sc2cc(O)ccc12 [Raloxifen hydrochloride, 1-[6-Hydroxy-2-(4-hydroxyphenyl)benzo[b]thien-3-yl]-1-[4-[2-(1-piperidinyl)ethoxy]phenyl]methanone]
[1]
  % Confluence: 45.26%
  % Inhibition: 70.75%
[1]; read-out: IC50
  IC50: 9.78 µM

## CC(C)(Sc1cc(C(C)(C)C)c(O)c(C(C)(C)C)c1)Sc1cc(C(C)(C)C)c(OC(=O)CCC(=O)O)c(C(C)(C)C)c1 [Succinobucol, Succinic acid 2,6-di-tert-butyl-4-[1-(3,5-di-tert-butyl-4-hydroxyphenylsulfanyl)-1-methylethylsulfanyl]phenyl monoester]
[1]
  % Confluence: 18.73%
  % Inhibition: 37.53%
